Assay results published in ChEMBL document CHEMBL1141006, “2-Arylimino-5,6-dihydro-4H-1,3-thiazines as a new class of cannabinoid receptor agonists. Part 3: Synthesis and activity of isosteric analogs” (Bioorg Med Chem Lett, 2008).

Tests used:
Cannabinoid receptor 2 = Cannabinoid receptor 2 (Homo sapiens, UniProt P34972); experiment: Binding affinity to human CB2 receptor
Cannabinoid receptor 1 [1] = target: T1, Cannabinoid receptor 1 (Homo sapiens, UniProt P21554); experiment: Binding affinity to human CB1 receptor
Mus musculus [2] = species on record: Mus musculus; experiment: Ratio of ED50 for analgesic activity in ddY mouse by ring-catalepsy test to ED50 for analgesic activity against formalin-induced inflammatory pain in ICR mouse; assay type: functional
[3] = Total clearance in rat at 2 mg/kg, iv and 3 mg/kg, po; assay type: ADME, organism-based; conditions: in vivo
Cannabinoid receptor 1 [4] = target: T1, Cannabinoid receptor 1; experiment: Binding affinity to human CB1 receptor expressed in CHO cells assessed as inhibition of cAMP accumulation; assay type: functional, cell-based
[5] = AUC in rat at 3 mg/kg, po; assay type: ADME, organism-based; set-up: dose 3 mg/kg, route oral; conditions: plasma
Mus musculus [6] = experiment: Analgesic activity against po dosed ddY mouse assessed as time spent motionless on the ring for 5 mins by ring catalepsy test; assay type: functional
[7] = Half life in rat at 2 mg/kg, iv and 3 mg/kg, po; assay type: ADME, organism-based; conditions: in vivo
[8] = Cmax in rat at 2 mg/kg, iv and 3 mg/kg, po; assay type: ADME, organism-based; conditions: in vivo
Mus musculus [9] = experiment: Analgesic activity against formalin-induced acute pain in po dosed ICR mouse assessed as paw licking for 0 to 5 mins; assay type: functional
[10] = Oral bioavailability in rat at 3 mg/kg; assay type: ADME, organism-based; conditions: in vivo
Mus musculus [11] = experiment: Analgesic activity against formalin-induced inflammatory pain in po dosed ICR mouse assessed as paw licking for 10 to 30 mins; assay type: functional
Cannabinoid receptor 1 [12] = target: Cannabinoid receptor 1 (Mus musculus, UniProt P47746); experiment: Binding affinity to mouse CB1 receptor
Cannabinoid receptor 1 (Mus musculus, UniProt P47746), sequence (P47746 whole entry): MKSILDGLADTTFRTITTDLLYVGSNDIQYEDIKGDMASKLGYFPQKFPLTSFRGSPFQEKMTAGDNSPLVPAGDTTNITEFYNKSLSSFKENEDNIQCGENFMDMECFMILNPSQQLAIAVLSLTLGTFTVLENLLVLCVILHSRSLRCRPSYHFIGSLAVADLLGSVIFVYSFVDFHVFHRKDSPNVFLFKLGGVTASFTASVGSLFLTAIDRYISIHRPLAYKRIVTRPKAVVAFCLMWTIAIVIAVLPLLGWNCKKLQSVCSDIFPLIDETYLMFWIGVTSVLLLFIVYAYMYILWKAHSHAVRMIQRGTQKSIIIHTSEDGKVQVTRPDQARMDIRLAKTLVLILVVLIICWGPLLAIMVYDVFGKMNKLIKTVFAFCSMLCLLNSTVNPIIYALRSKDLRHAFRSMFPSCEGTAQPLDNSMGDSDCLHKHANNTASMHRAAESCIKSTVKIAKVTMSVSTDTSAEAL

T1 sequence (P21554 whole entry): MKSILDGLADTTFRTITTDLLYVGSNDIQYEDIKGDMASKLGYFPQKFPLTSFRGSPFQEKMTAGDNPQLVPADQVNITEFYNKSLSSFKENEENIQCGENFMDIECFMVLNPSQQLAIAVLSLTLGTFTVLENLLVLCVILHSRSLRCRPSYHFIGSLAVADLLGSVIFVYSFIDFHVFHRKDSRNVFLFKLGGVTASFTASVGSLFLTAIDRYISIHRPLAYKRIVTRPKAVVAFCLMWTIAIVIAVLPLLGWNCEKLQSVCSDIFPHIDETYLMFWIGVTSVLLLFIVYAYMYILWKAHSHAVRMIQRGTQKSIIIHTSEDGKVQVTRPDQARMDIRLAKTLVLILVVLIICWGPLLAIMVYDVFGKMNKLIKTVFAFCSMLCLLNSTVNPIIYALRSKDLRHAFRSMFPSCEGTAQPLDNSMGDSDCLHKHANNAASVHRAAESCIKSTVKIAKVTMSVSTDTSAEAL
Cannabinoid receptor 2, sequence (P34972 whole entry): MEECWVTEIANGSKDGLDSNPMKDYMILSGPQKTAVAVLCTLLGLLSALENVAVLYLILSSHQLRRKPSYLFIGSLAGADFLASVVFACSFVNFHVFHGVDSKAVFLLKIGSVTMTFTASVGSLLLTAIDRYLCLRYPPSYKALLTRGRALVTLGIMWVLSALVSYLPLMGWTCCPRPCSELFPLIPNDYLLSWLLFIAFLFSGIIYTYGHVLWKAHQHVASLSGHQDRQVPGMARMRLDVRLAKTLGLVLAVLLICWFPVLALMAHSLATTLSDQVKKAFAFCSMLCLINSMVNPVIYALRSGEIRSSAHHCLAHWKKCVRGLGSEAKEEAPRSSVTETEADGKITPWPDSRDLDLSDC

SMILES | Ki (Cannabinoid receptor 2) [nM] | Ki (Cannabinoid receptor 1 [1]) [nM] | further results
CSC(=S)N1CC2(CCCCC2)CO/C1=N\c1cc(C(C)(C)C)no1 | 1 | 0.9 | 
CSC(=S)N1CC2(CCCCC2)CO/C1=N\c1cccc2c1CCCC2 | 1 | 14 | 
CSC(=O)N1CC2(CCCCC2)CS/C1=N\c1cccc2ccccc12 | 1.5 | 49 | 
CSC(=S)N1CC2(CCCCC2)CO/C1=N\c1cc(C(C)(C)C)on1 | 4.7 | 17 | 
CSC(=S)N1CC2(CCCCC2)CO/C1=N\c1cccc2ccccc12 | 0.9 | 9.3 | 
CSC(=S)N1CC2(CCCCC2)CO/C1=N\c1ccc(N(C)C)c2ccccc12 | 6.6 | 4.9 | 
CSC(=S)N1CC2(CCCCC2)CO/C1=N\c1ccc(C#N)c2c1CCCC2 | 1.9 | 101 | 
CSC(=S)N1CC2(CCCCC2)CO/C1=N\c1ccccc1 | 11 | 515 | 
CSC(=S)N1CC2(CCCCC2)CO/C1=N\c1ccc([N+](=O)[O-])c2ccccc12 | 2.4 | 14 | 
CSC(=O)N1CC2(CCCCC2)CN/C1=N\c1cccc2ccccc12 | 155 | 624 | 
CSC(=S)N1CC2(CCCCC2)CO/C1=N\c1nc(C(C)(C)C)cs1 | 1 | 1 | 
CSC(=O)N1CC2(CCCCC2)CO/C1=N\c1cccc2ccccc12 | 5.8 | 31 | 
COc1ccccc1/N=C1\OCC2(CCCCC2)CN1C(=S)SC | 0.9 | 59 | 
CSC(=S)N1CC2(CCCCC2)CO/C1=N\c1ccc(C#N)c2ccccc12 | 1.8 | 9.2 | 
CCC(CC)(CC)c1cc(/N=C2\OCC3(CCCCC3)CN2C(=S)SC)on1 | 1 | 1 | 
CSC(=S)N1CC2(CCCCC2)CO/C1=N\c1cccc2nonc12 | 6.8 | 152 | 
CSC(=S)N1CC2(CCCCC2)CO/C1=N\c1ccc(F)c2ccccc12 | 0.8 | 4.9 | 
CSC(=S)N1CC2(CCCCC2)CO/C1=N\c1ccc(Cl)c2ccccc12 | 0.9 | 3.4 | Ratio ED50 (Mus musculus [2]): 40; clearance [3]: 14.7 mL/min/kg; IC50 (Cannabinoid receptor 1 [4]): 8 nM; AUC [5]: 1210 ng·h/mL; ED50 (Mus musculus [6]): 25.6 mg/kg; half-life [7]: 2.2 h; Cmax [8]: 280 ng/mL; ED50 (Mus musculus [9]): 1.9 mg/kg; bioavailability [10]: 35%; ED50 (Mus musculus [11]): 0.64 mg/kg; Ki (Cannabinoid receptor 1 [12]): 0.7 nM
CSC(=S)N1CC2(CCCCC2)CS/C1=N\c1cccc2ccccc12 |  |  | Ratio ED50 (Mus musculus [2]): 19.2; IC50 (Cannabinoid receptor 1 [4]): 10 nM; AUC [5]: 1390 ng·h/mL; ED50 (Mus musculus [6]): 19.2 mg/kg; Cmax [8]: 160 ng/mL; ED50 (Mus musculus [9]): 1.5 mg/kg; bioavailability [10]: 80%; ED50 (Mus musculus [11]): 1 mg/kg
CSC(=S)N1CC2(CCCCC2)CO/C1=N\c1ccc(Cl)c2c1CCCC2 | 5.8 | 76 | 
